Measured values: patent US20160262390A1, “FIELD APPLICATION OF SUGARS TO INCREASE CROP YIELD” (Minn-Dak Farmers Cooperative, priority 2015, published 2016)

Test system: sugarbeets
Assay: In-furrow sugar and/or fertilizer application on sugarbeets, Foxhome
Format: in vivo, sugarbeet
Conditions: for Recoverable Sugar / Sugarbeets / Yield Increase Compared to Check: in-furrow
Method: In addition to testing pre-planting application of sugar, additional in-furrow application of sugar during sugarbeet planting was conducted. This testing was conducted at the Foxhome location and included ten (10) separate treatments. These treatments included one (1) untreated check treatment in which no sugar was applied and constitutes the control element. The treatments included one (1) treatment in which only a conventional fertilizer (liquid ammonium phosphate commonly and hereafter referred to as “10-34-0”) was applied in-furrow. […] Four (4) treatments included the in-furrow application of concentrated raw sugar juice (hereafter “CONCRJ”) at varying rates and/or 10-34-0. Liquid sugar is essentially comprised of sucrose. […] Liquid sugar, concentrated raw juice and 10-34-0 were all mixed and diluted with water in a tank and a conventional sprayer was configured such that the liquid was sprayed so as to have the desired sugar and fertilizer equivalent. For the sugar applied at rates of three gallons per acre, the sugar mixture was equivalent to 25 pounds per acre of sugar. […] In each replication, the liquid was applied into the furrow during planting of the sugarbeet seeds. A summary of the in-furrow sugar beet testing is contained in Table 16 below: […]

[1] = sugar 3 gal/acre + 10-34-0 3 gal/acre
[2] = sugar 3 gal/acre, 10-34-0 0 gal/acre
[3] = sugar 5 gal/acre + 10-34-0 3 gal/acre
[4] = sugar 5 gal/acre, 10-34-0 0 gal/acre

Which results are given for `OC[C@H]1O[C@@](CO)(O[C@H]2O[C@H](CO)[C@@H](O)[C@H](O)[C@H]2O)[C@@H](O)[C@@H]1O` [LIQSUC, sucrose]?
recoverable sugar compared to the check treatment and to 10-34-0 only (every in-furrow application of liquid sucrose): increase in recoverable sugar; recoverable sugar compared to the same amount of liquid sugar with no 10-34-0 (in-furrow liquid sucrose plus 10-34-0): increase in recoverable sugar; Recoverable Sugar [1]: 6437.113 Pounds/Acred; Sugarbeets [1]: 26.3981 Tons/Acre; Yield Increase Compared to Check [1]: 12.79%; Recoverable Sugar [2]: 5777.0474 Pounds/Acred; Sugarbeets [2]: 23.42 Tons/Acre; Yield Increase Compared to Check [2]: 1.23%; Recoverable Sugar [3]: 6262.2908 Pounds/Acred; Sugarbeets [3]: 25.66 Tons/Acre; Yield Increase Compared to Check [3]: 9.73%; Recoverable Sugar [4]: 5881.91 Pounds/Acred; Sugarbeets [4]: 24.38 Tons/Acre; Yield Increase Compared to Check [4]: 3.06%
